From ChEMBL document CHEMBL1201862, “PubChem BioAssay data set” (2004)
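Each compound was tested at five concentrations against cells in 96-well plates for 48 hours. GI50: concentration for 50% inhibition of growth.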 Active and inactive are the calls of the source. Rule as the data show it: active = GI50 up to about 1.1 µM and inactive = higher.

How the values were obtained:
Assay in all cases: growth of human tumour cells (NCI), 48 h
786-0 = test system: 786-0
SK-MEL-28 = test system: SK-MEL-28
PC-3 = test system: PC-3
OVCAR-3 = test system: OVCAR-3
DU-145 = test system: DU-145
SNB-75 = test system: SNB-75
UACC-62 = test system: UACC-62
IGROV-1 = test system: IGROV-1
SK-MEL-2 = test system: SK-MEL-2
A498 = test system: A498
MOLT-4 = test system: MOLT-4
HCT-116 = test system: HCT-116
EKVX = test system: EKVX
SK-OV-3 = test system: SK-OV-3
UACC-257 = test system: UACC-257
COLO 205 = test system: COLO 205
A549 = test system: A549
HT-29 = test system: HT-29
OVCAR-4 = test system: OVCAR-4
HOP-62 = test system: HOP-62

| Compound | GI50 (786-0) | GI50 (SK-MEL-28) | GI50 (PC-3) | GI50 (OVCAR-3) | GI50 (DU-145) | GI50 (SNB-75) | GI50 (UACC-62) | GI50 (IGROV-1) | GI50 (SK-MEL-2) | GI50 (A498) | GI50 (MOLT-4) | GI50 (HCT-116) | GI50 (EKVX) | GI50 (SK-OV-3) | GI50 (UACC-257) | GI50 (COLO 205) | GI50 (A549) | GI50 (HT-29) | GI50 (OVCAR-4) | GI50 (HOP-62) |
| --- | --- | --- | --- | --- | --- | --- | --- | --- | --- | --- | --- | --- | --- | --- | --- | --- | --- | --- | --- | --- |
| CC1C2(C)OC(=N)C(C#N)(C(c3ccccc3)O2)C1(C#N)C#N (stereo not given) | 21.2 µM (inactive) | > 10 µM (inactive) | 22.8 µM (inactive) | 15.1 µM (inactive) | 31.3 µM (inactive) | > 100 µM (inactive) | 24.4 µM (inactive) | 33.8 µM (inactive) | 16.9 µM (inactive) | 42.1 µM (inactive) | 25.4 µM (inactive) | 21.2 µM (inactive) | 21.4 µM (inactive) | > 100 µM (inactive) | 25.2 µM (inactive) | 16.4 µM (inactive) | > 100 µM (inactive) | 18.1 µM (inactive) | – | – |
| Nc1ccc(Oc2ccc(C34CC5CC(C3)CC(c3ccc(Oc6ccc(N)c(O)c6)cc3)(C5)C4)cc2)cc1O | 4.36 µM (inactive) | 2.48 µM (inactive) | 1.75 µM (inactive) | 2.03 µM (inactive) | 1.71 µM (inactive) | – | 2.25 µM (inactive) | 1.5 µM (inactive) | 2.07 µM (inactive) | 7.66 µM (inactive) | 2.48 µM (inactive) | 1.39 µM (inactive) | 1.72 µM (inactive) | 3.1 µM (inactive) | 1.97 µM (inactive) | 1.52 µM (inactive) | 1.64 µM (inactive) | 2.05 µM (inactive) | 2.24 µM (inactive) | 3.47 µM (inactive) |
| CN1CC[C@]2(c3cccc(O)c3)CC(=O)/C(=C/c3ccccc3)[C@@H]1C2.[O-][Cl+3]([O-])([O-])O | 2.44 µM (inactive) | 3.06 µM (inactive) | 1.76 µM (inactive) | 1.97 µM (inactive) | 5.52 µM (inactive) | 2 µM (inactive) | – | 4.39 µM (inactive) | 2.95 µM (inactive) | 6.98 µM (inactive) | 2.04 µM (inactive) | 2.31 µM (inactive) | 6.92 µM (inactive) | – | 3.24 µM (inactive) | 6.97 µM (inactive) | 3.42 µM (inactive) | 2.62 µM (inactive) | 3.37 µM (inactive) | 3.88 µM (inactive) |
| N=C(N)NS(=O)(=O)c1ccc(Nc2c3ccccc3nc3c(C(=O)NNCCO)cccc23)cc1 | 0.436 µM (active) | 0.252 µM (active) | 0.303 µM (active) | 0.134 µM (active) | 0.578 µM (active) | – | 0.27 µM (active) | 0.153 µM (active) | 0.156 µM (active) | > 1 µM (active) | 0.184 µM (active) | 0.156 µM (active) | 0.361 µM (active) | > 1 µM (active) | 0.22 µM (active) | 0.183 µM (active) | 0.473 µM (active) | 0.352 µM (active) | 0.295 µM (active) | 0.193 µM (active) |
| CC(C)OC1OC(CO)C(O)CC1n1cc(F)c(=O)[nH]c1=O (stereo not given) | > 100 µM (inactive) | > 100 µM (inactive) | > 100 µM (inactive) | > 100 µM (inactive) | > 100 µM (inactive) | > 100 µM (inactive) | > 100 µM (inactive) | > 100 µM (inactive) | > 100 µM (inactive) | > 100 µM (inactive) | – | > 100 µM (inactive) | > 100 µM (inactive) | – | > 100 µM (inactive) | > 100 µM (inactive) | > 100 µM (inactive) | > 100 µM (inactive) | > 100 µM (inactive) | – |
| COc1ccc(Nc2nc3ccccc3nc2-c2cccs2)cc1OC | > 10 µM (inactive) | > 10 µM (inactive) | 9.35 µM (inactive) | > 10 µM (inactive) | > 10 µM (inactive) | > 10 µM (inactive) | > 10 µM (inactive) | > 10 µM (inactive) | > 10 µM (inactive) | – | > 10 µM (inactive) | > 10 µM (inactive) | > 10 µM (inactive) | > 10 µM (inactive) | > 10 µM (inactive) | > 10 µM (inactive) | > 10 µM (inactive) | > 10 µM (inactive) | > 10 µM (inactive) | > 10 µM (inactive) |
| CCOC(=O)/C(=C\NC(=S)Nc1ccc(Cl)c(Cl)c1)C(=O)c1ccccc1 | 58.6 µM (inactive) | 53.2 µM (inactive) | 21.5 µM (inactive) | – | > 100 µM (inactive) | 6.79 µM (inactive) | 32.3 µM (inactive) | 33 µM (inactive) | 21.7 µM (inactive) | 3.94 µM (inactive) | 19 µM (inactive) | 46.5 µM (inactive) | > 100 µM (inactive) | 36.2 µM (inactive) | 34 µM (inactive) | 46 µM (inactive) | 43.1 µM (inactive) | 33.1 µM (inactive) | 41.5 µM (inactive) | 40.6 µM (inactive) |
| COC(=O)c1c(C)nc(C)c(N=O)c1-c1ccccc1C(F)(F)F | 17.6 µM (inactive) | 14.9 µM (inactive) | 34.2 µM (inactive) | 17.3 µM (inactive) | > 100 µM (inactive) | – | 27.6 µM (inactive) | 17.7 µM (inactive) | 36.1 µM (inactive) | > 100 µM (inactive) | 6.25 µM (inactive) | 16.4 µM (inactive) | 99.8 µM (inactive) | > 100 µM (inactive) | 14 µM (inactive) | 31.9 µM (inactive) | > 100 µM (inactive) | 15.7 µM (inactive) | 16.1 µM (inactive) | > 100 µM (inactive) |
| COCc1nc2c(OC)c(-c3nc4ccc(N5CCN(C)CC5)nc4[nH]3)cc(OC)c2[nH]1 | 40.7 µM (inactive) | 28 µM (inactive) | 33.3 µM (inactive) | 15.9 µM (inactive) | 29.2 µM (inactive) | 18 µM (inactive) | > 100 µM (inactive) | > 100 µM (inactive) | – | > 100 µM (inactive) | 37.1 µM (inactive) | 30.1 µM (inactive) | 68.1 µM (inactive) | 45.3 µM (inactive) | 24 µM (inactive) | 37.5 µM (inactive) | 46 µM (inactive) | 31 µM (inactive) | 46.1 µM (inactive) | 40.1 µM (inactive) |
| Nc1ncnc2c1cnn2Cc1cn(COCC(O)CO)nn1 (stereo not given) | > 100 µM (inactive) | > 100 µM (inactive) | > 100 µM (inactive) | > 100 µM (inactive) | > 100 µM (inactive) | – | > 100 µM (inactive) | > 100 µM (inactive) | > 100 µM (inactive) | > 100 µM (inactive) | – | > 100 µM (inactive) | > 100 µM (inactive) | > 100 µM (inactive) | > 100 µM (inactive) | > 100 µM (inactive) | > 100 µM (inactive) | > 100 µM (inactive) | > 100 µM (inactive) | > 100 µM (inactive) |
| Clc1ccc2c(NC3CCC(N4CCCCC4)CC3)ccnc2c1 (stereo not given) | 15.4 µM (inactive) | 18.6 µM (inactive) | 32.5 µM (inactive) | 20.8 µM (inactive) | 27.4 µM (inactive) | – | 17.9 µM (inactive) | 29.2 µM (inactive) | 18.2 µM (inactive) | 18.3 µM (inactive) | 14.6 µM (inactive) | 13.4 µM (inactive) | 21.2 µM (inactive) | 57.9 µM (inactive) | 14.3 µM (inactive) | 11.7 µM (inactive) | 31.8 µM (inactive) | 11.4 µM (inactive) | 26.5 µM (inactive) | 29.9 µM (inactive) |
| CC1(C)OCC(C2OC(N3O[C@H](CI)C[C@@H]3c3ccccc3)C3OC(C)(C)OC23)O1 (stereo not given in full) | > 100 µM (inactive) | > 100 µM (inactive) | 34 µM (inactive) | > 100 µM (inactive) | > 100 µM (inactive) | > 100 µM (inactive) | > 100 µM (inactive) | > 100 µM (inactive) | > 100 µM (inactive) | > 100 µM (inactive) | – | 61 µM (inactive) | > 100 µM (inactive) | > 100 µM (inactive) | > 100 µM (inactive) | > 100 µM (inactive) | > 100 µM (inactive) | 61.9 µM (inactive) | > 100 µM (inactive) | > 100 µM (inactive) |
| CCOC(=O)c1c(-c2ccccc2)[nH]c2ccc(Cl)cc2c1=O | 38.7 µM (inactive) | 69.7 µM (inactive) | 41.1 µM (inactive) | 19.5 µM (inactive) | 56 µM (inactive) | 45.8 µM (inactive) | 37.7 µM (inactive) | 29.6 µM (inactive) | 34 µM (inactive) | – | 28.3 µM (inactive) | 27.2 µM (inactive) | 54.6 µM (inactive) | 45.1 µM (inactive) | 36 µM (inactive) | 47.5 µM (inactive) | 36.6 µM (inactive) | 27.9 µM (inactive) | 20.5 µM (inactive) | 65.9 µM (inactive) |
| C1CCNCC1.CN(C)c1ccc(/C=C2/NC(=S)NC2=O)cc1 | > 100 µM (inactive) | 87.3 µM (inactive) | 56.4 µM (inactive) | 43.9 µM (inactive) | 62.1 µM (inactive) | 49.7 µM (inactive) | 36.8 µM (inactive) | 59.6 µM (inactive) | > 100 µM (inactive) | – | 28.2 µM (inactive) | 23.3 µM (inactive) | 50.4 µM (inactive) | 69.3 µM (inactive) | 72.8 µM (inactive) | 49.9 µM (inactive) | 46.8 µM (inactive) | 34.6 µM (inactive) | > 100 µM (inactive) | > 100 µM (inactive) |
| Cc1nc(O)nc2nc3ccc(Cl)cc3c(NCCNCCO)c12 | 8.75 µM (inactive) | 17.5 µM (inactive) | 13.7 µM (inactive) | 12.5 µM (inactive) | 16 µM (inactive) | – | 12 µM (inactive) | 12.3 µM (inactive) | 14.9 µM (inactive) | 20.3 µM (inactive) | 7.53 µM (inactive) | 5.85 µM (inactive) | 11.4 µM (inactive) | 11.4 µM (inactive) | 12.4 µM (inactive) | 8.99 µM (inactive) | 17.4 µM (inactive) | 10.3 µM (inactive) | 12.4 µM (inactive) | 8.05 µM (inactive) |
